Measurements: patent US9512138B2, “Compositions and methods for treating cancer” (The Regents of the University of California, priority 2012, dated 2016)
“Also recorded” adds a separate entry of the source. Structures can show the parent of a compound that is named as a salt.

Tests used:
[1] = test system: MCF-7/TAMR breast cancer cells; assay: Proliferation of tamoxifen-resistant MCF-7/TMR (TAM-R) cells; type: cell-based, human; settings: absence of parthenolide analogues
Description: MCF-7/CON cells are tamoxifen-sensitive, while MCF-7/HER2 and MCF-7/TMR cells are known to be tamoxifen-resistant (28,61,66,67). Except for TMR (64,68), cells were routinely cultured in RPMI 1640 media with 10% heat-inactivated FBS (28,64,66). For E2-free conditions, media were changed 48 h before studies to phenol-red free RPMI 1640 with 1% dextran-coated, charcoal-treated (DCC) FBS. TMR cells were derived by long-term continuous exposure of cells to 10^−7 M 4-hydroxy-tamoxifen by established methods (64,68) and were maintained with 10^−7 M 4-hydroxytamoxifen in medium. Levels of ERα and HER2 expression in these several cell lines were determined by use of Western blot methods.
Assays for Tumor Cell Proliferation. Breast tumor cells were be grown in RPMI 1640 media with 10% heat-inactivated FBS (except for TMR and TZR cells as noted above). For estrogen-free conditions, medium were changed 48 h before studies to phenol-red free RPMI 1640 with 1% dextran-coated, charcoal-treated (DCC) FBS, then treated with selected reagents. Cell counts and viability tests (Trypan blue) will be done every 24 hr for […]. After 48-72 hr, proliferation was assessed by cell counts.

[2] = test system: MCF7 parent cells without HER2 overexpression; assay: MCF-7 parent xenografts in nude mice; type: in vivo; settings: 28 d treatment
From the text: (§1) Conversion of estrogen-sensitive to -resistant tumors after the start of antiestrogen therapy is a major problem in the clinic (65). This resistance may be due, in part, to enhanced growth factor signaling, a cellular response to antiestrogen treatment that eventually results in increased phosphorylation of ER and/or coactivators, such as AIB1(54). Convergence between growth factor and estrogen signaling may elicit a synergistic feed-forward circuit with more robust cell growth (FIG. 10). It is notable that tumors with HER-2 overexpression tend to respond poorly to antiestrogens (69-72). […] Such clinical data offer further evidence of the biologic interaction between HER-2 and ER. To evaluate the relation of HER-2 to clinical antiestrogen resistance, we used estrogen-responsive, MCF-7 cells with defined levels of ER that were transfected with HER-2 gene (MCF-7/HER-2). MCF-7 cells+HER-2 overexpression and parent MCF-7 cells were grown as xenografts in nude mice as before (28) (FIGS. 11A-11B).
(§2) FIGS. 11A-11B. Overexpression of HER2 gene in MCF7 cells elicits resistance to endocrine therapy in vivo; FIG. 11A: Antiestrogen sensitivity of MCF7 parent cells without HER2 overexpression (control) in vivo. MCF7 cells were inoculated SQ in ovari-ectomized, nude mice primed with estrogen. […] Tumor volumes were recorded. […]

MCF-7/HER2 cells = assay: MCF-7/HER2 xenografts in nude mice; type: in vivo
From the text: as §1, §2

[3] = test system: A549, H23, H2122 and H1975 NSCLC cells; assay: MTS cell viability/proliferation assay in NSCLC cell lines, 72 h; type: cell-based, human
Description: FIG. 5. Parthenolide analogues JD201-JD210 suppress human lung tumor cell proliferation in vitro. A549, H23, H2122 and H1975 NSCLC cells were treated with increasing concentrations of drugs (0.1-100 μM). After 72 h cell viability was assessed by MTS assay. Viable cells are expressed as percentage of vehicle control. P<0.01 (**), versus control group, P<0.05 (*), versus control group. Natural occurring parthenolide (PTL), parthenolide analogues JD201 (DMAPT)-JD210. Parthenolide analogues inhibit female (H1975, H2122) and male (H23, A549) NSCLC cell proliferation.
To determine the effect of parthenolide analogues in lung cancer cell proliferation we tested two male (A549, H23) and two female (H2122, H1975) lung cancer cell lines with increasing concentrations of parthenolide analogues (0.1, 1, 10 and 100 μM) for 72 hours.

[4] = test system: NF-κB/p65 phosphorylation; assay: Western blot of phospho-NF-κB/p65 in H23 cells; type: cell-based, human; settings: for phosphorylation of the p65 subunit of NF-κB: 10 μM, 60 min (FIG. 7); for phosphorylation of NF-κB/p65: 10 µM, 60 min (FIG. 13)
Description: FIG. 7. […] After 60 min Western blot were performed using anti-phospho-NF-κB/p65 antibody (Cell Signaling Technology #3031). Membranes were stripped and re-probed with antibody against total NF-κB/p65 (CST #3037).
After 60 min, Western blots were done using anti-phospho-NFκB/p65 antibody (Cell Signaling).
Upon confirming that parthenolide analogues can inhibit NSCLC cell proliferation, induce cell death and enhance the cytotoxicity of chemotherapy, we began to investigate potential cellular mechanisms that may underlie this process. For example, we used Western Blot methods to determine phosphorylation of the p65 subunit of NF-κB. H23 cells were incubated in the presence of vehicle control or 10 μM concentration of the parthenolide derivatives (JD 201, 202, 203, 204) for 60 min. After treatment, cells were collected and homogenized in lysis buffer. Extracts were electrophoresed on 4-20% gradient SDS-PAGE gels and transferred to nitrocellulose membranes. Blots were probed with anti-phospho-NF-κB/p65 and NF-κB/p65 for a loading control.

[5] = cited from earlier work
[6] = in vivo; cited from earlier work
A549 NSCLC cells = assay: ALDH+/CD133+ cancer stem/progenitor cell subset by Aldefluor/CD133 FACS; type: cell-based, human; settings: 10 nM estradiol-17b, P<0.001
Description: FIG. 1. Isolation of cancer stem/progenitor cell subsets as determined by assay of specific biomarkers, ALDH and CD133, and effect of estrogen exposure. NSCLC cells (A549) were treated in vitro with control (CON), 10 nM estradiol-17b (E2), or E2 in the presence of […] fulvestrant. Thereafter, aldehyde dehydrogenase (ALDH) activity and CD133 expression were analyzed by established double labeling methods using an Aldefluor Assay Kit and CD133 antibody, respectively, followed by FACS sorting. The numbers of ALDH+/CD133+ lung tumor cells, representing a putative CSC subset, was expressed as a percent of total lung tumor cells for each treatment group. […] Experiments were done in triplicate.
Substantial evidence has accumulated to support the role of a small subset of self-renewing cells that sustain malignant growth. […] Based on these findings, we identified CD133+/ALDH+ tumor stem/progenitor cells from human lung cancer cells in vitro using an Aldefluor assay (to isolate ALDH+ cells) (5,7,8) in combination with labeled anti-CD133 antibodies (3,10) followed by fluorescence-activated cell sorting analysis (11). In brief, ALDH activity and CD133 expression were analyzed by established double labeling methods using the Aldefluor Assay Kit (Stem Cell Technologies) and CD133/1 antibody (Miltenyi) according to the manufacturer's instructions. […] Data were analyzed using FlowJo (Tree Star Inc.). […]

CC/C(=C(\c1ccccc1)c1ccc(OCCN(C)C)cc1)c1ccccc1 [tamoxifen]
response of MCF-7/TMR cells to tamoxifen alone [1]: resistant | growth of MCF-7 parent xenografts [2]: markedly suppressed | antiestrogen sensitivity of MCF-7/HER-2 xenografts (MCF-7/HER2 cells): insensitive

C/C1=C\CC[C@@]2(C)O[C@H]2[C@H]2OC(=O)[C@@H](CN(C)O)[C@@H]2CC1 [JD207, (1aR,7aS,8R,10aS,Z)-8-((Hydroxy(methyl)amino)methyl)-1a,5-dimethyl-2,3,6,7,7a,8,10a, 10b-octahydrooxireno[2′,3′:9,10]cyclodeca[1,2-b]furan-9(1aH)-one, fumaric acid salt]
growth inhibition at 100 μM ([3]; A549, H23, H2122, H1975): Significant growth inhibition

C/C1=C\CC[C@@]2(C)O[C@H]2[C@H]2OC(=O)/C(=C\N3CCCCC3)[C@@H]2CC1 [JD205, (1aR,4Z,7aS,8Z,10aS)-1a,5-Dimethyl-8-(piperidin-1-ylmethylene)-2,3,6,7,7a,8,10a,10b-octahydrooxireno[2′,3′:9,10]cyclodeca[1,2-b]furan-9(1aH)-one]
growth inhibition at 100 μM ([3]; A549, H23, H2122, H1975): Significant growth inhibition | phosphorylation of the p65 subunit of NF-κB [4]: inhibit phosphory-lation of NF-κB/p65 | phosphorylation of NF-κB/p65 [4]: inhibit phosphorylation of NF-κB/p65

C/C1=C\CC[C@@]2(C)O[C@H]2[C@H]2OC(=O)[C@@H](CN(C)C)[C@@H]2CC1 [JD201, (1aR,7aS,8R,10aS,Z)-8-((Dimethylamino)methyl)-1a,5-dimethyl-2,3,6,7,7a,8,10a,10b-octa-hydrooxireno[2′,3′:9,10]cyclodeca[1,2-b]furan-9(1aH)-one, fumaric acid salt]
plasma concentrations ([5]; after oral administration): 40 µM | oral bioavaliability ([5]; oral): 70% | toxicology profile [6]: acceptable

CON(C)C[C@@H]1C(=O)O[C@H]2[C@H]1CC/C(C)=C/CC[C@@]1(C)O[C@@H]21 [JD204, (1aR,7aS,8R,10aS,Z)-8-((Methoxy(methyl)amino)methyl)-1a,5-dimethyl-2,3,6,7,7a,8,10a, 10b-octahydrooxireno[2′,3′:9,10]cyclodeca[1,2-b]furan-9(1aH)-one, fumaric acid salt]
phosphorylation of the p65 subunit of NF-κB [4]: reduced phosphorylation of the p65 subunit of NF-κB; also recorded: inhibit phosphory-lation of NF-κB/p65 | phosphorylation of NF-κB/p65 [4]: inhibit phosphorylation of NF-κB/p65

C/C1=C/CC[C@@]2(C)OC2[C@H]2OC(=O)[C@@H](CNCc3ccccn3)[C@@H]2CC1.O=C(O)/C=C/C(=O)O (stereo partly drawn) [JD202, (1aR,7aS,8R,10aS,Z)-1a,5-Dimethyl-8-(((pyridin-2-ylmethyl)amino)methyl)-2,3,6,7,7a,8, 10a,10b-octahydrooxireno[2′,3′:9,10]cyclodeca[1,2-b]furan-9(1aH)-one, fumaric acid salt]
growth inhibition at 10 μM ([3]; 10 μM, A549, H23, H2122, H1975): Significant growth inhibition | growth inhibition at 100 μM ([3]; A549, H23, H2122, H1975): Significant growth inhibition | inhibitory activity relative to other analogues ([3]; FIG. 5, 0.1-100 μM): greater inhibitory activity than compounds 205 and 207 | phosphorylation of the p65 subunit of NF-κB [4]: reduced phosphorylation of the p65 subunit of NF-κB; also recorded: inhibit phosphory-lation of NF-κB/p65 | phosphorylation of NF-κB/p65 [4]: inhibit phosphorylation of NF-κB/p65

C[C@]12CC[C@@H]3c4ccc(O)cc4C[C@@H](CCCCCCCCC[S+]([O-])CCCC(F)(F)C(F)(F)F)[C@H]3[C@@H]1CC[C@@H]2O (stereo partly drawn) [fulvestrant]
growth of MCF-7 parent xenografts [2]: markedly suppressed | antiestrogen sensitivity of MCF-7/HER-2 xenografts (MCF-7/HER2 cells): partial sensitivity

estradiol-17b
proportion/number of ALDH+/CD133+ cancer stem/progenitor cells (A549 NSCLC cells): increases the proportion of cancer stem/progenitor cell subsets | proportion/number of ALDH+/CD133+ cancer stem/progenitor cells (A549 NSCLC cells; listed as estrogen): modest increase in the numbers of CSC
